Experimental data as given in patent US10662214B2, “Compound of 4′-thionucleoside, as well as preparation method therefor, pharmaceutical composition thereof and application thereof” (Sichuan Kelun-Biotech Biopharmaceutical Co., Ltd., priority 2015, dated 2020).

How the values were obtained:
[1] = system: human pancreatic cancer cell Capan-1; assay: Subcutaneous xenograft of human pancreatic cancer cell Capan-1 in a nude mouse (Experimental example 5); format: in vivo; settings: once every 3 days, 6 times
Description: According to methods similar to those in sections 1 to 2 in Experimental example 2, pancreatic cancer cell Capan-1 was cultured as a monolayer in vitro, and inoculated, and the animals were randomized into groups.
Samples were prepared as described in Experimental example 2.
Mice bearing a tumor having a volume of 100-200 mm^3 were selected, and randomized into 7 groups (7 mice per group).
(§1) For statistical calculations of the test indexes, please refer to Experimental example 2.

[2] = system: gastric cancer cell NCI-N87; assay: Subcutaneous xenograft of gastric cancer cell NCI-N87 in nude mice (Experimental example 2); format: in vivo; settings: 190 μmol/kg i.v.
Description: (§2) This experimental example was used for the evaluation of the effectiveness of the compounds of the present invention in inhibiting the proliferation of a subcutaneous xenograft of human tumor cells via various routes of administration.
(§3) Gastric cancer cell NCI-N87 and colorectal cancer cell HCT-116 were cultured as a monolayer in vitro, and the culture conditions were RPMI-1640 culture medium supplemented with 10% heat inactivated Fetal Bovine Serum, and incubation in an incubator at 37° C. and 5% CO2. The cells were subcultured by treatment with trypsin-EDTA digestion.
(§4) The tumor cells were respectively inoculated into BALB/c nude mice (SPF grade, female, 16-18 g per mouse, about 6 to 8 weeks old, Beijing Vital River Laboratory Animal Technology Co., Ltd.).
(§5) Each nude mouse was inoculated with about 2.5×10^6 HCT-116 tumor cells or about 3×10^6 NCI-N87 tumor cells (suspended in 0.1 ml PBS) subcutaneously into the underarm of the right flank. After the inoculated tumor reached a size in the range of about 100-200 mm^3, nude mice bearing a tumor that is too small (smaller than 100 mm^3) or too big (bigger than 200 mm^3) were removed from the study, and the remaining ones were randomized into groups.
(§6) Sulfobutyl ether-β-cyclodextrin (SE-β-CD) was formulated with physiological saline to form a 10% solution, which was then filtered through a 0.22 μm sterile filter for later use.
(§7) An appropriate amount of the test compound was weighted, and added in DMSO. The resultant solution was vortexed to uniformity, and the 10% solution of SE-β-CD was added according to the desired concentration. The solution was vortexed to uniformity, and the final concentration of DMSO was adjusted to 5%. A gemcitabine injection (a positive control) was directly diluted to the desired concentration with physiological saline. A 10% solution of SE-β-CD containing 5% DMSO was prepared as a vehicle control.
(§8) Mice bearing a tumor having a volume of about 100-200 mm^3 were selected, and randomized into 5 groups (8 mice per group). The dosing volume was 10 mL/kg, and the administration (intravenous administration (i.v.) or oral administration (p.o.)) was performed twice a week for 3 weeks. The tumor volume and body weight were measured twice a week after the administration, and the mortality of animals was observed every day.
(§9) The diameter of a tumor was measured, and the tumor volume was calculated according to the following formula: V=0.5a×b^2, wherein a and b respectively represent the major and minor diameters of a tumor. The anti-tumor effect was evaluated by the tumor growth inhibition (TGI) (%). TGI (%)=[1−(VT-end−VT-start)/(VC-end−VC-start)]*100%
(§10) The body weight of an animal was measured twice a week.

[3] = mice, significant dose administered intravenously; cited from earlier work
[4] = system: human pancreatic cancer cell BxPC-3; assay: Subcutaneous xenograft of human pancreatic cancer cell BxPC-3 in a nude mouse (Experimental example 3); format: in vivo; settings: once every 3 days, 4 times
Description: According to methods similar to those in sections 1 to 2 in Experimental example 2, pancreatic cancer cell BxPC-3 was cultured as a monolayer in vitro, and inoculated, and the animals were randomized into groups.
An appropriate amount of the test compound was weighted out, and added in DMSO. The 10% solution of SE-β-CD was then added according to the desired concentration, and the final concentration of DMSO was adjusted to 2.5%. A gemcitabine injection (a positive control) was diluted to the desired concentration with physiological saline. A 10% solution of SE-β-CD containing 2.5% DMSO was prepared as a vehicle control.
Mice bearing a tumor having a volume of 100-200 mm^3 were selected, and randomized into 14 groups (7 mice per group). The dosing volume was 20 mL/kg, and the administration (intravenous administration (i.v.)) was performed once every 3 days, for 4 times in total.
as §1

[5] = system: colorectal cancer cell HCT-116; assay: Subcutaneous xenograft of colorectal cancer cell HCT-116 in nude mice (Experimental example 2); settings: 190 μmol/kg i.v.
Description: as §2, §3, §4, §5, §6, §7, §8, §9, §10

[6] = system: human pancreatic cancer cell BxPC-3; assay: Subcutaneous xenograft of human pancreatic cancer cell BxPC-3 in a nude mouse (Experimental example 4); format: in vivo
Description: According to methods similar to those in sections 1 to 3 in Experimental example 2, pancreatic cancer cell BxPC-3 was cultured as a monolayer in vitro, and inoculated; the animals were randomized into groups; and samples were prepared.
Mice bearing a tumor having a volume of 80-250 mm^3 were selected, and randomized into 6 groups (8 mice per group). The dosing volume was 10 mL/kg.
as §1
The test results obtained by administrating (intravenous administration (i.v.) or oral administration (p.o.)) once a week for 3 weeks are shown in table 7-2.

[7] = system: human pancreatic cancer cell PANC-1; assay: Subcutaneous xenograft of human pancreatic cancer cell PANC-1 in a nude mouse (Experimental example 6); format: in vivo; settings: 0.06 mmol/kg i.v., once every 3 days, 6 times
Description: This test was performed according to experimental example 5.
Mice bearing a tumor having a volume of 100-200 mm^3 were selected, and randomized into 4 groups (6 mice per group).

Nc1ccn([C@@H]2O[C@H](CO)[C@@H](O)C2(F)F)c(=O)n1 [Gemcitabine injection, Gemcitabine, reference compound]
TGI (%) ([1]; 0.02 mmol/kg i.v.): 15.4%
TGI (%) ([1]; 0.19 mmol/kg i.v.): 78.9%
TGI (%) ([2]; twice a week for 3 weeks): 107%
Tumor regression, CR (complete tumor regression) ([2]; animals out of 8): 2/8 CR,
Tumor regression, PR (partial tumor regression) ([2]; animals out of 8): 6/8 PR
death or gastrointestinal toxicity after intravenous dosing [3]: no death or gastrointestinal toxicity
TGI (%) ([4]; 0.04 mmol/kg i.v.): −2.2%
TGI (%) ([4]; 0.12 mmol/kg i.v.): 28.9%
TGI (%) ([4]; 0.24 mmol/kg i.v.): 45.5%
Mortality [5]: 0
TGI (%) ([5]; twice a week for 3 weeks): 92%
Tumor regression ([5]; 14 days after last administration): 0
TGI (%) ([6]; 0.12 mmol/kg i.v., twice a week for 3 weeks): 23.6%
TGI (%) ([6]; 0.23 mmol/kg i.v., once a week for 3 weeks): 23.6%
TGI (%) [7]: 64.4%
